{
  "source": "patent US4559323A",
  "about": "“A41030 Antibiotics” (Eli Lilly and Company, priority 1984, dated 1985)",
  "key": {"Clostridium perfringens": {"test_system": "Clostridium perfringens", "type": "cell-based", "settings": "Table 14; Clostridium perfringens 81"}, "Peptococcus prevoti": {"test_system": "Peptococcus prevoti", "assay": "Agar-dilution MIC (anaerobes)", "type": "cell-based"}, "[1]": {"test_system": "Peptococcus asaccharolyticus", "assay": "Agar-dilution MIC (anaerobes)", "type": "cell-based", "settings": "Table 15", "description": "The MIC values were determined by the agar-dilution method, and are recorded in Table 15, which follows."}, "S. pyogenes": {"test_system": "S. pyogenes", "assay": "In vivo oral activity against S. pyogenes in mice"}, "[2]": {"test_system": "Bacteroides melaninogenicus", "assay": "Agar-dilution MIC (anaerobes)", "type": "cell-based", "settings": "Table 14; Bacteroides melaninogenicus 2736"}, "Clostridium difficile": {"test_system": "Clostridium difficile", "type": "cell-based", "settings": "Table 16", "description": "The A41030 antibiotic factors A, B, C, D, E, F, and G, are also active against a number of strains of Clostridium difficile, as determined by the agar-dilution method."}, "Solubility in solvents": {"assay": "Solubility in solvents", "type": "physicochemical", "settings": "solvents as named", "description": "The seven antibiotic factors are recovered from the fermentation and are obtained as a mixture, the A41030 complex. It will be recognized that the ratio of the factors in the A41030 complex will vary, depending upon the fermentation conditions used. The individual factors […], and G are separated and isolated as individual compounds, as hereinafter described."}, "[3]": {"test_system": "Peptostreptococcus anaerobius", "assay": "Agar-dilution MIC (anaerobes)", "type": "cell-based"}, "Fusobacterium symbiosum": {"test_system": "Fusobacterium symbiosum", "assay": "Agar-dilution MIC (anaerobes)", "type": "cell-based", "settings": "Table 14; Fusobacterium symbiosum 1470"}, "[4]": {"assay": "Electrometric titration (pKa)", "type": "physicochemical", "settings": "electrometric titration in 66% dimethylformamide in water"}, "Bacteroides fragilis": {"test_system": "Bacteroides fragilis", "assay": "Agar-dilution MIC (anaerobes)", "type": "cell-based", "description": "(§1) The agar-dilution procedure described by the International Collaborative study (ICS) group was used to determine the minimum inhibitory concentrations (MIC's)."}, "B. thetaiotaomicron": {"test_system": "B. thetaiotaomicron", "type": "cell-based", "settings": "Table 12, 24-hour", "description": "as §1"}},
  "note": "Where two headings read alike, the source gives them in different places.",
  "data": [
    {"compound": "NC1C(=O)NC2Cc3ccc(c(Cl)c3)Oc3cc4cc(c3O)Oc3ccc(cc3Cl)C(O)C3NC(=O)C(NC(=O)C4NC(=O)C(NC2=O)c2cc(O)cc(c2)Oc2cc1ccc2O)c1cc(Cl)c(O)c(c1)-c1c(O)cc(O)cc1C(C(=O)O)NC3=O", "note": "(stereo not shown) [A41030 factor A]", "values": [
      {"measurement": "MIC", "setting": "Clostridium perfringens", "value": 0.5, "unit": "µg/mL"},
      {"measurement": "MIC", "setting": "Peptococcus prevoti; Table 14, Peptococcus prevoti 1281", "value": "≤ 0.25", "unit": "µg/mL"},
      {"measurement": "MIC", "setting": "Peptococcus prevoti; Table 15, Pc. prevoti 1281", "value": 0.5, "unit": "µg/mL"},
      {"measurement": "MIC", "setting": "Peptococcus prevoti; Table 15, Pc. prevoti 1293", "value": 1.0, "unit": "µg/mL"},
      {"measurement": "MIC", "setting": "Peptococcus prevoti; Table 15, Pc. prevoti 1407", "value": 1.0, "unit": "µg/mL"},
      {"measurement": "MIC", "setting": "[1]; Pc. asaccharolyticus 1302", "value": "≤ 0.03", "unit": "µg/mL"},
      {"measurement": "MIC", "setting": "[1]; Pc. asaccharolyticus 1344", "value": 0.5, "unit": "µg/mL"},
      {"measurement": "in vivo oral activity", "setting": "S. pyogenes", "value": "> 300", "unit": "mg./kg.X2"},
      {"measurement": "MIC", "setting": "[2]", "value": 4, "unit": "µg/mL"},
      {"measurement": "MIC", "setting": "Clostridium difficile; C. difficile 78", "value": 1.0, "unit": "µg/mL"},
      {"measurement": "MIC", "setting": "Clostridium difficile; C. difficile 107B", "value": 1.0, "unit": "µg/mL"},
      {"measurement": "MIC", "setting": "Clostridium difficile; C. difficile 111F", "value": 1.0, "unit": "µg/mL"},
      {"measurement": "MIC", "setting": "Clostridium difficile; C. difficile 1153", "value": 1.0, "unit": "µg/mL"},
      {"measurement": "MIC", "setting": "Clostridium difficile; C. difficile 2634", "value": 1.0, "unit": "µg/mL"},
      {"measurement": "MIC", "setting": "Clostridium difficile; C. difficile 3424-5B", "value": 1.0, "unit": "µg/mL"},
      {"measurement": "MIC", "setting": "Clostridium difficile; C. difficile 3816", "value": 1.0, "unit": "µg/mL"},
      {"measurement": "MIC", "setting": "Clostridium difficile; C. difficile 3950", "value": 1.0, "unit": "µg/mL"},
      {"measurement": "MIC", "setting": "Clostridium difficile; C. difficile 6890", "value": 1.0, "unit": "µg/mL"},
      {"measurement": "MIC", "setting": "Clostridium difficile; C. difficile 8484", "value": 1.0, "unit": "µg/mL"},
      {"measurement": "MIC", "setting": "Clostridium difficile; C. difficile A-194", "value": 1.0, "unit": "µg/mL"},
      {"measurement": "MIC", "setting": "Clostridium difficile; C. difficile A-195", "value": 1.0, "unit": "µg/mL"},
      {"measurement": "MIC", "setting": "Clostridium difficile; C. difficile A-196", "value": 1.0, "unit": "µg/mL"},
      {"measurement": "MIC", "setting": "Clostridium difficile; C. difficile A-279", "value": 1.0, "unit": "µg/mL"},
      {"measurement": "MIC", "setting": "Clostridium difficile; C. difficile A-280", "value": 1.0, "unit": "µg/mL"},
      {"measurement": "MIC", "setting": "Clostridium difficile; C. difficile A-281", "value": 1.0, "unit": "µg/mL"},
      {"measurement": "MIC", "setting": "Clostridium difficile; C. difficile WAL-2112", "value": 1.0, "unit": "µg/mL"},
      {"measurement": "MIC", "setting": "Clostridium difficile; C. difficile WAL-3657", "value": 1.0, "unit": "µg/mL"},
      {"measurement": "MIC", "setting": "Clostridium difficile; C. difficile WAL-4268", "value": 1.0, "unit": "µg/mL"},
      {"measurement": "Solubility", "setting": "Solubility in solvents", "value": "soluble in alcohol-water mixtures, in dimethylsulfoxide, in dimethylformamide, in dimethylsulfoxide-water mixtures, in dimethylformamide-water mixtures, in dilute aqueous acid, and in dilute aqueous base"},
      {"measurement": "MIC", "setting": "[3]; Table 14, Peptostreptococcus anaerobius 1428", "value": "≤ 0.25", "unit": "µg/mL"},
      {"measurement": "MIC", "setting": "[3]; Table 15, Ps. anaerobius 8", "value": 0.5, "unit": "µg/mL"},
      {"measurement": "MIC", "setting": "[3]; Table 15, Ps. anaerobius 52", "value": 0.5, "unit": "µg/mL"},
      {"measurement": "MIC", "setting": "[3]; Table 15, Ps. anaerobius 59", "value": 0.5, "unit": "µg/mL"},
      {"measurement": "MIC", "setting": "[3]; Table 15, Ps. anaerobius 1418", "value": "≤ 0.03", "unit": "µg/mL"},
      {"measurement": "MIC", "setting": "[3]; Table 15, Ps. anaerobius 1428", "value": 0.5, "unit": "µg/mL"},
      {"measurement": "MIC", "setting": "[3]; Table 15, Ps. anaerobius 1451", "value": 0.5, "unit": "µg/mL"},
      {"measurement": "MIC", "setting": "[3]; Table 15, Ps. anaerobius 1477", "value": 0.5, "unit": "µg/mL"},
      {"measurement": "MIC", "setting": "Fusobacterium symbiosum", "value": 1.0, "unit": "µg/mL"},
      {"measurement": "pKa, first titratable group", "setting": "[4]", "value": "about 5.53"},
      {"measurement": "pKa, second titratable group", "setting": "[4]", "value": "~7.60"},
      {"measurement": "pKa, third titratable group", "setting": "[4]", "value": "~10.37"},
      {"measurement": "MIC", "setting": "Bacteroides fragilis; Table 12, 24-hour, B. fragilis 2", "value": 64, "unit": "µg/mL"},
      {"measurement": "MIC", "setting": "Bacteroides fragilis; Table 12, 24-hour, B. fragilis 9", "value": 64, "unit": "µg/mL"},
      {"measurement": "MIC", "setting": "Bacteroides fragilis; Table 12, 24-hour, B. fragilis 103", "value": 32, "unit": "µg/mL"},
      {"measurement": "MIC", "setting": "Bacteroides fragilis; Table 12, 24-hour, B. fragilis 104", "value": 32, "unit": "µg/mL"},
      {"measurement": "MIC", "setting": "Bacteroides fragilis; Table 12, 24-hour, B. fragilis 106", "value": 64, "unit": "µg/mL"},
      {"measurement": "MIC", "setting": "Bacteroides fragilis; Table 12, 24-hour, B. fragilis 107", "value": 32, "unit": "µg/mL"},
      {"measurement": "MIC", "setting": "Bacteroides fragilis; Table 12, 24-hour, B. fragilis 108", "value": 32, "unit": "µg/mL"},
      {"measurement": "MIC", "setting": "Bacteroides fragilis; Table 12, 24-hour, B. fragilis 110", "value": 64, "unit": "µg/mL"},
      {"measurement": "MIC", "setting": "Bacteroides fragilis; Table 12, 24-hour, B. fragilis 111", "value": 32, "unit": "µg/mL"},
      {"measurement": "MIC", "setting": "Bacteroides fragilis; Table 12, 24-hour, B. fragilis 112", "value": 64, "unit": "µg/mL"},
      {"measurement": "MIC", "setting": "Bacteroides fragilis; Table 12, 24-hour, B. fragilis 113", "value": 32, "unit": "µg/mL"},
      {"measurement": "MIC", "setting": "Bacteroides fragilis; Table 12, 24-hour, B. fragilis 1451", "value": 64, "unit": "µg/mL"},
      {"measurement": "MIC", "setting": "Bacteroides fragilis; Table 12, 24-hour, B. fragilis 1470", "value": 64, "unit": "µg/mL"},
      {"measurement": "MIC", "setting": "Bacteroides fragilis; Table 12, 24-hour, B. fragilis 1877", "value": 32, "unit": "µg/mL"},
      {"measurement": "MIC", "setting": "Bacteroides fragilis; Table 12, 24-hour, B. fragilis 9032", "value": 64, "unit": "µg/mL"},
      {"measurement": "MIC", "setting": "Bacteroides fragilis; Table 14, Bacteroides fragilis 111", "value": 128, "unit": "µg/mL"},
      {"measurement": "MIC", "setting": "Bacteroides fragilis; Table 14, Bacteroides fragilis 1877", "value": 32, "unit": "µg/mL"},
      {"measurement": "MIC", "setting": "Bacteroides fragilis; Table 14, Bacteroides fragilis 1936B", "value": 64, "unit": "µg/mL"},
      {"measurement": "MIC", "setting": "B. thetaiotaomicron; B. thetaiotaomicron 1438", "value": 64, "unit": "µg/mL"},
      {"measurement": "MIC", "setting": "B. thetaiotaomicron; B. thetaiotaomicron 1900A", "value": 128, "unit": "µg/mL"}
    ]}
  ]
}
